Experimental data as given in paper PMC6826492, “Experimental and Computational Study of the Antioxidative Potential of Novel Nitro and Amino Substituted Benzimidazole/Benzothiazole-2-Carboxamides with Antiproliferative Activity” (Antioxidants, 2019).
Where two headings read alike, the source gives them in different places. Each block holds one compound with its values, some of them ahead of it.

Assays:
[1] = DFT calculation of bond dissociation and ionization energies; settings: for BDE lower than BDE (M1): difference to M1
Description: All geometrical parameters were optimized employing the density functional theory (DFT) B3LYP functional (unrestricted UB3LYP for the radicals), together with the 6–31+G(d) basis set, followed by the vibrational analysis using the Gaussian 16 software. Thermal corrections were extracted from the matching uncorrected vibrational frequencies, also used to confirm the obtained structures as true minima by the lack of imaginary frequencies. The final electronic energies were refined through single-point calculations with a highly flexible 6–311++G(2df,2pd) basis set. Solvent effects were considered through the implicit SMD polarizable continuum model with all parameters for pure ethanol (ε = 24.852), giving the B3LYP/6–311++G(2df,2pd)//(SMD)/B3LYP/6–31+G(d) model employed here, being fully in line with our earlier reports. As such, all computational values correspond to differences in Gibbs free energies obtained at a room temperature of 298 K and a normal pressure of 1 atm. The choice of this computational setup was additionally prompted by its success in modeling mechanisms of various antioxidants, and in reproducing kinetic and thermodynamic parameters of a variety of organic and enzymatic reactions. According to the literature, there are several mechanisms that relate to the antioxidative properties of molecules. Here, we inspected the two most frequent, and usually thermodynamically most preferred antioxidant mechanisms, namely hydrogen atom transfer (HAT), and single electron transfer (SET) that is commonly followed by proton transfer (SET-PT). All these mechanisms result in the formation of the same antioxidant radical.
HAT is a major route where the H atom (hydrogen radical, H•) is directly transferred from an antioxidant (M) to a free radical accompanied by the homolytic M–H bond cleavage. The capacity of this process is governed by the M–H bond dissociation energy (BDE), calculated as:M–H → M• + H• BDE = G(M•) + G(H•) − G(M–H).
Scavenging the free radicals can also be accomplished by donating an electron from a system M in the SET-PT process. This process is driven by the adiabatic ionization energy (IE) necessary to eject a single electron from M, calculated as:M → M•^+ + e^− IE = G(M•^+) − G(M).

H 460 (lung carcinoma) = test: Antiproliferative activity in vitro (MTT assay); format: cell-based, human; settings: Homo sapiens, NCI-H460, 72 h, 72 h incubation, concentration that causes 50% growth inhibition
Experimental: (§1) The experiments were performed on four human cell lines, including HCT 116 (colon carcinoma), H 460 (lung carcinoma), MCF-7 (breast carcinoma), and HEK 293 (human embryonic kidney cells), in line with previously published experimental procedures. Briefly, the cells were grown in DMEM medium with the addition of 10% fetal bovine serum (FBS), 2 mM L-glutamine, 100 U/mL penicillin, and 100 µg/mL streptomycin, and cultured as monolayers at 37 °C in a humidified atmosphere with 5% CO2. Cells were seeded at 2 × 10^3 cells/well in a standard 96-well microtiter plates and left to attach for 24 h. The next day, a test compound was added in five serial 10-fold dilutions. The rate of cell growth was evaluated after 72 h of incubation with MTT assays. The obtained results are expressed as IC50 values, calculated from the concentration-response curve using linear regression analysis by fitting the test concentrations that give PG values above and below the reference value (i.e., 50%). Each test was performed in quadruplicate in at least two individual experiments.

[2] = tested on: HCT 116 (colon carcinoma); test: Antiproliferative activity in vitro (MTT assay); format: cell-based, human; settings: Homo sapiens, HCT-116, 72 h, 72 h incubation, concentration that causes 50% growth inhibition, read-out: IC50 HCT116
Experimental: as §1

MCF-7 (breast carcinoma) = test: Antiproliferative activity in vitro (MTT assay); format: cell-based, human; settings: Homo sapiens, MCF7, 72 h, 72 h incubation, concentration that causes 50% growth inhibition
Experimental: as §1

[3] = tested on: HEK 293 (human embryonic kidney cells); test: Cytotoxic activity on non-cancerous cells (MTT assay); format: cell-based; settings: Homo sapiens, HEK293; non-tumor cell line; 72 h incubation, MTT; concentration that causes 50% growth inhibition
Experimental: as §1

[4] = DPPH free radical scavenging; format: biochemical; settings: for IC50: after 30 min of incubation with 100 μM DPPH
Experimental: The reducing activity of investigated systems was achieved by the DPPH method according to previously described procedures with modifications to assure the use in a 96-well microplate. Briefly, equal volumes of various concentrations of tested molecules (dissolved in DMSO) were added to the solution of DPPH (final concentration 50 µM in absolute ethanol). Ethanol and DMSO were used as control solutions in line with earlier reports.

[5] = Ferric reducing/antioxidant power (FRAP assay); format: biochemical; settings: for FRAP: means ± standard deviation, absorbance at 593 nm
Experimental: The FRAP method was carried out according to previously described procedures with some modifications to be compatible with an assay on a 96-well microplate. All tests were done in triplicate, while the obtained results were averaged and reported as Fe^2+ equivalents (Fe^2+ µmol).
By using the FRAP assay, we investigated the reducing power of investigated systems, which was monitored by the corresponding changes in the absorbance at 593 nm. This method is based on the ability of systems to reduce the ferric tripyridyl triazine complex (TPTZ) to the ferrous state (Fe^2+), which can be seen by an intense blue color. […] Good reducing ability was shown by the trimethoxy substituted benzimidazole-2-carboxamide 14 bearing the amino group (1102.5 ± 14.1 mmolFe^2+/mmolC).

HCT 116 cells = test: Antioxidative activity assay in cells (TBHP-induced ROS, DCFH-DA); format: cell-based, human; settings: 100 µM TBHP + 10 µM compound, 1 h, DCFH-DA fluorescence
Experimental: For the antioxidative activity assay, 2.5 × 10^4 cells were seeded into 96-well microtiter plates and left to attach for 24 h. The next day, cells were washed with PBS and incubated in FBS-free DMEM medium with 25 µM DCFH-DA fluorescence dye. After 45 min of incubation, medium was discarded, and cells were washed with PBS. After the washing step, cells were incubated with 100 µM tert-Butyl hydroperoxide (TBHP) alone or in combination with antioxidative agents (50 mM N-Acetyl-L-cysteine—NAC, or 10 µM tested compounds) in PBS, for 1 h at 37 °C. DCFH-DA fluorescence was recorded on a microplate fluorimeter reader (Tecan) with excitation beam of 485 nm, while the emitted fluorescence was collected at 535 nm. All tests were presented as medians of three independent measurements, done in triplicates. One-way ANOVA with Tukey’s post-hoc test was used for statistical analysis, * p < 0.05, ** p < 0.01, *** p < 0.001.
In order to test the antioxidant activity of selected systems in tumor cells (Figure 1), we treated HCT 116 cells with tert-Butyl hydroperoxide (TBHP), a substance commonly used for inducing oxidative stress in cells and tissues, alone or in a combination with a known antioxidative agent N-Acetyl-L-cysteine (NAC) or tested compounds [35]. We measured the formation of oxidative stress by-products using 2′,7′-dichlorodihydrofluorescein diacetate (DCFH-DA). We selected system 8 showing pronounced antiproliferative/cytotoxic activity, but no antioxidant capacity in DPPH/FRAP assays, 29 showing exceptionally pronounced antioxidative activity in DPPH/FRAP tests, 14 showing negligible antiproliferative but strong antioxidant capacity in both DPPH/FRAP assays, and 26 showing similarly strong antiproliferative and radical trapping activity in DPPH assay, but rather modest reducing power in FRAP assay. None of the compounds influenced the basal level of ROS in the cells. […] On the other hand, no effect was obtained upon treatment with either 8 or 14 (Figure 1). We additionally tested the impact of the selected compounds on cellular and mitochondrial ROS production in HCT 116 cells using fluorescent dyes, DCFH-DA for cellular and MitoSOX for mitochondrial ROS detection (Supplementary Materials, Figures S53 and S54).
Figure 1 Antioxidative activity of selected systems. HCT 116 cells were treated with the combination of tert-Butyl hydroperoxide (TBHP, 100 uM) and N-Acetyl-L-cysteine (NAC, 50 mM) or tested compounds 8, 14, 26, and 29 (10 µM) for 1 h. The level of reactive oxygen species (ROS) was measured with fluorescent dye 2′,7′-dichlorodihydrofluorescein diacetate (DCFH-DA) using fluorimeter. Treatment with 100 uM TBHP alone was used as a control for ROS induction. Data presented here are the results of three independent measurements, done in triplicates. […]

HCT116 cell line [6] = test: Cellular ROS measurement assay (DCFH-DA, flow cytometry); format: cell-based, human; settings: HCT116, 10 µM compounds (2 mM H2O2 positive control), 1 h, DCF-DA; *** p < 0.001, ns not significant
Experimental: Figure S53. Impact of compounds on cellular ROS production was measured with fluorescent dye DCF-DA in HCT116 cell line, after the treatment with 10 µM compounds for 1h. H 2O2 was used as a positive control. Data presented here are the results of 3 independent measurements, done in duplicates. One-way ANOVA with Tukey’s post-hoc test was used for statistical analysis, ***- p < 0.001. […]
Human colon carcinoma cell line HCT116 was grown in DMEM medium with the addition of 10% fetal bovine serum (FBS), 2 mM L-glutamine, 100 U/ml penicillin and 100 µg/ml streptomycin, and cultured as monolayers at 37°C in a humidified atmosphere with 5% CO2.
Cellular ROS measurement assay
For the cellular ROS measurement assay, 2.5 × 10^4 cells were seeded into 96-well microtiter plates 24h prior to experiment. Next day, cells were trypsinized and incubated in FBS-free DMEM medium with 20 µM DCFH-DA fluorescence dye for 45 minutes. After the incubation, compounds were added without washing and cells were treated with 2 mM H 2O2 as a positive control and 10 µM compounds 8, 14 and 26 for 1 hour. Cells were washed in PBS and DCFH-DA signal was measured by flow cytometry, in FL1 channel. […]

HCT116 cell line [7] = test: Mitochondrial ROS measurement assay (MitoSOX, flow cytometry); format: cell-based, human; settings: HCT116, 10 µM compounds (3 µM Rotenone positive control), 1 h, *** p < 0.001, ns not significant
[8] = cited from earlier work

Structure (SMILES): O=C(Nc1nc2ccc([N+](=O)[O-])cc2s1)c1cc(O)c(O)c(O)c1 [Compound 29, 3,4,5-trihydroxy-N-(6-nitrobenzothiazol-2-yl)benzamide]
IC50 (H 460 (lung carcinoma)): 2 ± 1 µM
IC50 [2]: 7 ± 1 µM
IC50 (MCF-7 (breast carcinoma)): 4 ± 0.7 µM
IC50 [3]: 6 ± 4 µM
IC50 [4]: 2 ± 0.15 µM
FRAP [5]: 6139.2 ± 3.0 mmolFe^2+/mmolC
FRAP reducing power in comparison to standard BHT ([5]; relative to BHT): threefold higher
ROS levels when oxidative stress was induced (HCT 116 cells): significantly reduced the ROS levels
BDE increase relative to M12 ([1]; difference to M12): 0.8 kcal/mol

Structure (SMILES): COc1c(O)cc(C(=O)Nc2nc3ccc([N+](=O)[O-])cc3[nH]2)cc1O [Compound 26, 3,5-dihydroxy-4-methoxy-N-[5(6)-nitrobenzimidazol-2-yl]benzamide]
IC50 (H 460 (lung carcinoma)): 3 ± 0.5 µM
IC50 [2]: 4 ± 0.1 µM
IC50 (MCF-7 (breast carcinoma)): 3 ± 1 µM
IC50 [3]: 3 ± 0.7 µM
IC50 [4]: 8.1 ± 1.9 µM
FRAP [5]: 244.9 ± 4.8 mmolFe^2+/mmolC
ROS levels when oxidative stress was induced (HCT 116 cells): significantly reduced the ROS levels
cellular ROS production (significance vs control) (HCT116 cell line [6]): ns
mitochondrial ROS production (significance vs control) (HCT116 cell line [7]): ns

Structure (SMILES): Cc1cc(C(C)(C)C)c(O)c(C(C)(C)C)c1 [BHT, butylated hydroxytoluene, reference compound]
IC50 [4]: 25 ± 4 µM
FRAP [5]: 2089 ± 60 mmolFe^2+/mmolC
BDE ([8]; in benzene ref 45): 76.9 kcal/mol
BDE ([8]; in heptane ref 44): 79.9 kcal/mol
BDE ([8]; in toluene ref 46): 72.4 kcal/mol

Structure (SMILES): COc1cc(C(=O)Nc2nc3ccc(N)cc3[nH]2)cc(OC)c1OC [Compound 14, N-[5(6)-aminobenzimidazol-2-yl]-3,4,5-trimethoxybenzamide]
IC50 (H 460 (lung carcinoma)): > 100 µM
IC50 [2]: 76 ± 24 µM
IC50 (MCF-7 (breast carcinoma)): 43 ± 15 µM
IC50 [3]: 43 ± 2 µM
antioxidant potency relative to 17 ([4]; DPPH, 14 vs 17): around four times
IC50 [4]: 10.7 ± 0.23 µM
FRAP [5]: 1102.5 ± 14.1 mmolFe^2+/mmolC
ROS levels when oxidative stress was induced (HCT 116 cells): no effect
cellular ROS production (significance vs control) (HCT116 cell line [6]): ns
mitochondrial ROS production (significance vs control) (HCT116 cell line [7]): ns

Structure (SMILES): N#Cc1ccc(N)cc1 [Compound 4-CN-aniline, 4-CN-aniline]
N–H BDE ([8]; in water ref 48): 91.8 kcal/mol

Structure (SMILES): O=C(O)c1cc(O)c(O)c(O)c1 [gallic acid]
calculated BDE [8]: 77.0 kcal/mol

Structure (SMILES): O=C(Nc1ccccc1)c1ccccc1 [Ph–CO–NH–Ph, reference compound]
BDE ([8]; earlier calculations of the authors ref 24): 85.3 kcal/mol

Structure (SMILES): NC1CCCCC1 [c-C6H11–NH3^+]
BDE ([8]; monocationic, in acetonitrile ref 39): 113.6 kcal/mol

Other lines, results leading:

more potent antioxidant (lower BDE) than nitro-substituted M21 ([1]; difference to M21): ~15 kcal/mol
Structure (SMILES): COc1cc(C(=O)Nc2nc3ccc(N)cc3[nH]2)cc(OC)c1OC [Compound M22]

BDE higher than that for BHT ([1]; difference to BHT (65.8)): 16.9 kcal/mol
Structure (SMILES): O=C(Nc1nc2ccccc2s1)c1ccccc1 [Compound M1]

BDE lower than BDE (M1) [1]: 0.5 kcal/mol
Structure (SMILES): COc1ccc(C(=O)Nc2nc3ccccc3s2)cc1 [Compound M9]

lowering of antioxidative capacity (BDE increase) relative to M8 ([1]; difference to M8): 1.1 kcal/mol
Structure (SMILES): O=C(Nc1nc2ccc([N+](=O)[O-])cc2s1)c1ccc(O)cc1 [Compound M10]

BDE lower than BDE (M1) [1]: 7.1 kcal/mol
Structure (SMILES): Nc1ccc2nc(NC(=O)c3ccccc3)sc2c1 [Compound M6]

BDE lower than BDE (M1) [1]: 10.1 kcal/mol
Structure (SMILES): O=C(NC1=Nc2ccccc2C1)c1ccccc1 [Compound M4]

BDE lower than BDE (BHT) ([1]; difference to BHT (65.8)): 17.5 kcal/mol
Structure (SMILES): Nc1ccc2nc(NC(=O)c3ccccc3)sc2c1 [Compound M7]

BDE lower than BDE (M1) [1]: 4.8 kcal/mol
Structure (SMILES): O=C(Nc1nc2ccccc2s1)c1ccc(O)cc1 [Compound M8]
